In patent publication US9345904B2, “Photodynamic therapy using photosensitizing agent or 5-aminolevulinic acid” (SBI Pharmaceuticals Co., Ltd., priority 2011, dated 2016):

Experiments:
MKN45 cells = test: Cell-killing effect of ALA-PDT by wavelength, MTT assay survival rate; type: cell-based
Description: MKN45 cells (purchased from Riken Cell Bank) cultured in a 35-mm dish were cultured for 4 hours in the presence of 0.168 mg/mL ALA. Then, 5 mL of a hemoglobin solution was dispensed into a 60-mm dish, placed on the 35-mm dish in which the culture was performed in the presence of ALA, and irradiated with light. Light shielding by hemoglobin was provided to imitate the inside of a living body because hemoglobin is considered to be a leading cause of the inhibition of light invasion in photodynamic therapy. The culture was irradiated to 4.5 J/cm^2 (5 mW/cm^2, 15 min.) with light having a peak at 402 nm, 502 nm, 517 nm, 529 nm, or 636 nm. […]
The survival rate of cells after light irradiation was measured using an MTT assay method. […] Thereafter, 200 μL thereof was dispensed into a 96-well plate and measured for absorbance at 570 nm using a plate reader (from Bio-Rad). The survival rate was measured from the absorbance of each sample and expressed relative to the absorbance after a medium without cultured cells were subjected to these procedures, set to 0%, and the absorbance after such cells cultured as control were subjected to these procedures, set to 100%. Optical power density with light shielding by hemoglobin was measured using Power Meter (from Scientex, Inc.); the results are shown in FIG. 3.

HeLa cells = test: Cancer therapeutic effect of ALA-PDT by wavelength, hematoxylin-eosin staining of subcutaneous HeLa tumors; type: in vivo, SCID mice; conditions: for tumor tissue histology (effect of ALA-PDT): 750 mg/kg b.w. ALA tail vein, 100 J/cm^2, after 4 hours, tissue taken following day
Description: 5×10^5 HeLa cells were subcutaneously injected into SCID mice of the mouse numbers 1 to 3. […] After maintaining the mice until the size of tumors reaches that described in Table 1, 750 mg/kg b.w. of ALA was injected into the tail vein of the mice of numbers 1 and 2. After 4 hours, the mouse of number 1 was irradiated with LED light having a peak at a wavelength of 517 nm and the mouse of number 2 was irradiated with LED light having a peak at a wavelength of 629 nm. The SCID mice irradiated with light listed above were each anesthetized on the following day; a portion containing HeLa cells was cut out, fixed in formaldehyde, subjected to dehydration treatment with ethanol and xylene, and then embedded in paraffin; and a small piece thinly sliced into a thickness of 5 μm was stained with hematoxylin-eosin to observe the tissue under a light microscope.

Compound: NCC(=O)CCC(=O)O [ALA, 5-aminolevulinic acid]
- cell-killing effect of lights at 502 nm, 517 nm and 529 nm relative to light at 636 nm (MKN45 cells; with light shielding by hemoglobin, lower optical power densities at 502-529 nm): comparable cell-killing effects compared to light at 636 nm
- cell-killing effect of ALA-PDT (MKN45 cells; without light shielding by hemoglobin, 0.168 mg/mL ALA 4 hours, 4.5 J/cm^2, lights with peak at 402, 502, 517, 529 or 636 nm compared): stronger in the order of lights having a peak at 402 nm, 502 nm, 517 nm, 529 nm, or 636 nm
- effect of ALA-PDT at 517 nm compared with 629 nm (cell density, amount of blebs) (HeLa cells; mouse number 1 (517 nm) versus mouse number 2 (629 nm), tumors about 4 mm in height): the effect of ALA-PDT was higher
- tumor tissue histology (effect of ALA-PDT) (HeLa cells; mouse number 1, LED 517 nm): the condensation of the cytoplasm, the disappearance of the nucleus, and clearance between cells due to the generation of blebs were observed
- tumor tissue histology (effect of ALA-PDT) (HeLa cells; mouse number 2, LED 629 nm): the condensation of the cytoplasm, the disappearance of the nucleus, and clearance between cells due to the generation of blebs were observed
